Here are results for 3 compounds from patent publication US20200239530A1, “COMPOUNDS AND METHODS OF MODULATING PROTEIN DEGRADATION” (Vividion Therapeutics, Inc., priority 2017, published 2020).

Like-named read-outs stand apart in the source and are kept apart here.

Assay in all cases: Cysteine liganding, probe competition
Holding throughout (assay type): binding

For assay [1], the target named is T1, UniProt Q969V5 (Homo sapiens, UniProt Q969V5).
T1 construct: Cells were resuspended in cold PBS on ice and sonicated with a probe sonicator to achieve lysis; endogenous in cells
T1 sequence (Q969V5 1-352): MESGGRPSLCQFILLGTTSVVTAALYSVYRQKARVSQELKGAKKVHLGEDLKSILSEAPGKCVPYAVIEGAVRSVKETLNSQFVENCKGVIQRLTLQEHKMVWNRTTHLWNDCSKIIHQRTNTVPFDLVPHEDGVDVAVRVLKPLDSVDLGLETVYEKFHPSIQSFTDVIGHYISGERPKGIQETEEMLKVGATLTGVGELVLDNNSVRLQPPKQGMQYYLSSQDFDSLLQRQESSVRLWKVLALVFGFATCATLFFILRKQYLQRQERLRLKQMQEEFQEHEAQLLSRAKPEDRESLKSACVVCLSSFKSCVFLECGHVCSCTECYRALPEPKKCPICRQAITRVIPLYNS
The conditions noted are these: for percent inhibition: 100 uM. The source says: (§1) The following 96-well sample prep protocol was used for sample preparation.

For assay [2], the target named is T2, UniProt Q9UJ41 (Homo sapiens, UniProt Q9UJ41).
T2 construct: 200 μL of lysate containing 5 mg/ml proteome was treated with 2 μL of 100× compound stock; endogenous in cells
Excerpt: as §1

Assay [3] has as its target T3, UniProt Q12899 (Homo sapiens, UniProt Q12899).
T3 construct: 200 μL of lysate containing 5 mg/ml proteome was treated with 2 μL of 100× compound stock; endogenous in cells
Excerpt: as §1

For assay [4], the target named is T4, UniProt Q9HCI7 (Homo sapiens, UniProt Q9HCI7).
T4 construct: Cells were resuspended in cold PBS on ice and sonicated with a probe sonicator to achieve lysis; endogenous in cells
T4 sequence (Q9HCI7 1-577): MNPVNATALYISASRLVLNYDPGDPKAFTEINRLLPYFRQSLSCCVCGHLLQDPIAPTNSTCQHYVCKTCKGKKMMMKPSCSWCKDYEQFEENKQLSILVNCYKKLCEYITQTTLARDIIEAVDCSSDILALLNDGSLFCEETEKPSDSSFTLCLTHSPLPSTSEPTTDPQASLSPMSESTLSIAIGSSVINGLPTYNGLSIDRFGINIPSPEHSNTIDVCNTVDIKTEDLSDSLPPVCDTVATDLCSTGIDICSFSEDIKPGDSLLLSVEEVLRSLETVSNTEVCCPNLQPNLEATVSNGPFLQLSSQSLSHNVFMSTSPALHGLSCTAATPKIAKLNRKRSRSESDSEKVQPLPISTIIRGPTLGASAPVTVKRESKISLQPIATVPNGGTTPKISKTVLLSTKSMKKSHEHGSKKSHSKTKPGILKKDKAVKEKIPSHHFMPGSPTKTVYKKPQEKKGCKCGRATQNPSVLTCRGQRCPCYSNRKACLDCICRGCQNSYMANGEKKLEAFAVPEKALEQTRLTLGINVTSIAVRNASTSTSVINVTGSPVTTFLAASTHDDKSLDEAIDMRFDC
The conditions noted are these: for percent inhibition: 100 uM.
Excerpt: as §1

Assay [5] has as its target T5, UniProt Q13049 (Homo sapiens, UniProt Q13049).
T5 construct: 200 μL of lysate containing 5 mg/ml proteome was treated with 2 μL of 100× compound stock; endogenous in cells
Excerpt: as §1

Assay [6] addresses T6, UniProt P63208 (Homo sapiens, UniProt P63208).
T6 construct: 200 μL of lysate containing 5 mg/ml proteome was treated with 2 μL of 100× compound stock; endogenous in cells
The conditions noted are these: for percent_inhibition: 100 uM; for inhibition at 100 µM: read-out: percent_inhibition.
Excerpt: as §1

Assay [7] has as its target T7, UniProt Q9Y2Z0 (Homo sapiens, UniProt Q9Y2Z0).
T7 construct: 200 μL of lysate containing 5 mg/ml proteome was treated with 2 μL of 100× compound stock; endogenous in cells
The conditions noted are these: read-out: percent_inhibition.
Excerpt: as §1

Assay [8] has as its target T8, UniProt Q8IWR1 (Homo sapiens, UniProt Q8IWR1).
T8 construct: 200 μL of lysate containing 5 mg/ml proteome was treated with 2 μL of 100× compound stock; endogenous in cells
T8 sequence (Q8IWR1 1-403): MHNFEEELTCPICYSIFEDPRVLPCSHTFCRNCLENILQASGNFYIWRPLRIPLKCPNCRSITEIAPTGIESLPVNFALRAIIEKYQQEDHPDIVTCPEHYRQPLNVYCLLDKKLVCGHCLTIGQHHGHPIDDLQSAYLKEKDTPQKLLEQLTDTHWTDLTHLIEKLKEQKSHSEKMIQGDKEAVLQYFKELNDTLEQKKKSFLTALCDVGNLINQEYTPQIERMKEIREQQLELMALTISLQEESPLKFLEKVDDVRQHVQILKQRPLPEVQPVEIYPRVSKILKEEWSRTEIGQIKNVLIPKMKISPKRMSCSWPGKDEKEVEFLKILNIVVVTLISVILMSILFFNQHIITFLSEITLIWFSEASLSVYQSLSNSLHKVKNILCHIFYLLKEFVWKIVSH
Excerpt: as §1

Assay [9] concerns the target T9, UniProt Q96BF6 (Homo sapiens, UniProt Q96BF6).
T9 construct: Cells were resuspended in cold PBS on ice and sonicated with a probe sonicator to achieve lysis; endogenous in cells
T9 sequence (Q96BF6 1-587): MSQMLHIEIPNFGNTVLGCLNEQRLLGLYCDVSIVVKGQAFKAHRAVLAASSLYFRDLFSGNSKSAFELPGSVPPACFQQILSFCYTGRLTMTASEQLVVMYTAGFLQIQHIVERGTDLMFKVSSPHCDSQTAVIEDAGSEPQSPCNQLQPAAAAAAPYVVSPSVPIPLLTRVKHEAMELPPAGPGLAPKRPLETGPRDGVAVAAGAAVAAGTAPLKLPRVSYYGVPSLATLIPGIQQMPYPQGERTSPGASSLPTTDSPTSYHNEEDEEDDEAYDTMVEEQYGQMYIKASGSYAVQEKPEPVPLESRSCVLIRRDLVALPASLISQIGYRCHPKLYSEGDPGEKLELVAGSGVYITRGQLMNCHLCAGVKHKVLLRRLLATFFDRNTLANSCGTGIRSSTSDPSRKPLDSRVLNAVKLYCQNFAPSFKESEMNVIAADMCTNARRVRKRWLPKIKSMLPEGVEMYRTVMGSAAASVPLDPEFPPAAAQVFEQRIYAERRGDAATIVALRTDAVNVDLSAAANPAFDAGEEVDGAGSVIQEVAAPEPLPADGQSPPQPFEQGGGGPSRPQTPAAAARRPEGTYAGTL
The conditions noted are these: for inhibition at 100 µM / inhibition at 500 µM: read-out: percent inhibition.
Excerpt: as §1

The mark [10] stands for this setting: read-out: KB05_100 uM_percent_inhibition.

T6 sequence (P63208 whole entry, change not shown): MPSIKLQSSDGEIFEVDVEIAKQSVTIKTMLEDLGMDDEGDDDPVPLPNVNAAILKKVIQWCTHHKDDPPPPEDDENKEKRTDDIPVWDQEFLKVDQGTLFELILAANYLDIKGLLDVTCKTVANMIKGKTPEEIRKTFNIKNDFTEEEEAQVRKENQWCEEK
T2 sequence (Q9UJ41 whole entry, change not shown): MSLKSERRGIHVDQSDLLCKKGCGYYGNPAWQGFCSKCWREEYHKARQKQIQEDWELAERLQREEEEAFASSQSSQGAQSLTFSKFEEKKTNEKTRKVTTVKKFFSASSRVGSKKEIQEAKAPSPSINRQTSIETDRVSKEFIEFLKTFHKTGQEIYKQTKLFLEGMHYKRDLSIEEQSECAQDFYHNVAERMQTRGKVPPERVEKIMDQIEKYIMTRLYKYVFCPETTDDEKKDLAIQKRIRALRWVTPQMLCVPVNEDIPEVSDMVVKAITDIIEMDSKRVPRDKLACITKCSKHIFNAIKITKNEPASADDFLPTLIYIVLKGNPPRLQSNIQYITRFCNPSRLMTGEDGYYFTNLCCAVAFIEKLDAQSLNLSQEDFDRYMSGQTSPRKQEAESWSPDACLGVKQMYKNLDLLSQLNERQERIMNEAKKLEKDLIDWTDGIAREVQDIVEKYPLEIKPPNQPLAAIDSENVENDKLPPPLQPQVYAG
T7 sequence (Q9Y2Z0 whole entry, change not shown): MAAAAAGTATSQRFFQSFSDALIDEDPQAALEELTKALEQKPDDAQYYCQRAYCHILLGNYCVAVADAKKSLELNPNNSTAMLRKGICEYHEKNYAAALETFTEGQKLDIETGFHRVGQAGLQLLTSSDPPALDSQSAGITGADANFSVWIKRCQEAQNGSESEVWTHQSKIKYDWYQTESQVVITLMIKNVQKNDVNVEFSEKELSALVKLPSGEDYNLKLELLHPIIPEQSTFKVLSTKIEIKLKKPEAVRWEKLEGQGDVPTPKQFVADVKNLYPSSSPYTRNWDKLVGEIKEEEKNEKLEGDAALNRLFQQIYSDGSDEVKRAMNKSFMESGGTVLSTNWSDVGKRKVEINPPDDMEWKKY
T5 sequence (Q13049 whole entry, change not shown): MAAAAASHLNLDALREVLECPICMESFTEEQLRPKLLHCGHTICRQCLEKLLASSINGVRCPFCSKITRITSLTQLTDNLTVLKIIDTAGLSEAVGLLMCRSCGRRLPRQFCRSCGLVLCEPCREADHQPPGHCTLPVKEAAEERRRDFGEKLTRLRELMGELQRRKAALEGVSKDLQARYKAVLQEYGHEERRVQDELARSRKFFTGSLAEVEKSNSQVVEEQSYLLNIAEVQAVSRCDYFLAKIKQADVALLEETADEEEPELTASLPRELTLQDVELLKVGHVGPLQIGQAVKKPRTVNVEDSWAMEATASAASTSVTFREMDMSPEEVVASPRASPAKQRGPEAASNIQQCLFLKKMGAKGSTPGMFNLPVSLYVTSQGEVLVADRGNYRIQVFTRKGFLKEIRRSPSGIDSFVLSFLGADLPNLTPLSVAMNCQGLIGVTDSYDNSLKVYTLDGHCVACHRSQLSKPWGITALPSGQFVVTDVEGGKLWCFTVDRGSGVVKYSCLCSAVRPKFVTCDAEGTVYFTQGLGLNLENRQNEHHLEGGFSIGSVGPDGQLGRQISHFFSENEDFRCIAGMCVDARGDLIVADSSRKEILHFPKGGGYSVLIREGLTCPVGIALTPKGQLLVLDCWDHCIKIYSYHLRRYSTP
T3 sequence (Q12899 whole entry, change not shown): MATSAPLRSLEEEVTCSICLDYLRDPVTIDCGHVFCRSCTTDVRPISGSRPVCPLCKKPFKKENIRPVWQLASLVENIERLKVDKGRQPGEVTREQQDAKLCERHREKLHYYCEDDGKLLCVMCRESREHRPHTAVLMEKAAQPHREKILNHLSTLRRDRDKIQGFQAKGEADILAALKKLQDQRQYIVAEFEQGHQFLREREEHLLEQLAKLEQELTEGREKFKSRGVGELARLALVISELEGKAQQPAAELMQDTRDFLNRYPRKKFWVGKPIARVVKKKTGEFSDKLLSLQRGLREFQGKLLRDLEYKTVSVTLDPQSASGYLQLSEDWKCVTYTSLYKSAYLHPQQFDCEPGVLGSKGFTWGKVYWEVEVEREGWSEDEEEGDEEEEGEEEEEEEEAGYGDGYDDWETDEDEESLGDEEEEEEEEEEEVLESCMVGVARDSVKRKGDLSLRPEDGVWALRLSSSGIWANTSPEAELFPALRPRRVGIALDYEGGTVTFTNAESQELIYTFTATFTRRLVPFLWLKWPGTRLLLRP

`O=C(CCl)Nc1cc(C(F)(F)F)cc(C(F)(F)F)c1` [KBO3]: the values for the percent inhibition in assay [1] and in [4] were 38% and 49%, respectively. In addition, the entries for the “KB03_100 uM_percent_inhibition” value in assay [2] (100 uM), in assay [3] (100 uM) and in assay [5] (100 uM) were 20%, 56% and 14%, respectively.
Consider `COc1ccc2c(c1)CCCN2C(=O)CCl` [KB02], for which the percent inhibition in assay [1] is reported as 35%; in assay [9] (100 uM), 32%; in [9] (500 uM), 32%. Also, the inhibition at 100 µM stood at 25% in assay [1] (read-out: percent inhibition); 13% in assay [6]; 20% in assay [7]; 46% in [8] (read-out: KB02_100 uM_percent_inhibition); 38% in assay [9] (100 uM). This compound also registered a percent_inhibition in assay [6] of 18%. Moreover, in assay [8] (500 uM), the “KB02_500 uM_percent_inhibition” value was determined as 66%. The inhibition at 500 µM in assay [8] (500 uM, read-out: KB02_500 uM_percent_inhibition) is 58%; in [9] (500 uM) it was 46%.
As for `C=CC(=O)N(c1ccccc1)c1ccc(Br)cc1` [KB05], the inhibition at 100 µM in assay [2] (setting [10]) turned out to be 33%; in [6], 15%; in assay [3] (setting [10]) it was 28%; in assay [7], 31%; in assay [8] (setting [10]) it was 38%; in [9] (100 uM), 25%. The inhibition at 100 µM worked out at 15% in [4] (read-out: percent inhibition) and 5% in assay [5] (setting [10]). In assay [6], this compound yielded a percent_inhibition of 14%. Moreover, the percent inhibition in assay [9] (500 uM) came out at 56%; in assay [4] it was 11%. The inhibition at 500 µM in [9] (500 uM) was found to be 47%.
